# From PubChem BioAssay (NCI)
#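 Briefly, cells in 96-well plates were exposed to five compound concentrations for 48 h, and endpoints were estimated by linear interpolation. At the GI50, growth is halved. TGI is the concentration that stops growth completely.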
# Experiments:
# Experiment in all cases: NCI tumour cell line growth inhibition, 48 h
# [1] = tested on: SK-OV-3 ovarian
# [2] = tested on: PC-3 prostate
# [3] = tested on: M14 melanoma
# [4] = tested on: SN12C renal
# [5] = tested on: TK-10 renal
# [6] = tested on: MDA-MB-231 breast
# [7] = tested on: SW-620 colon
# [8] = tested on: OVCAR-3 ovarian
# [9] = tested on: SK-MEL-5 melanoma
# [10] = tested on: MCF7 breast
# [11] = tested on: OVCAR-4 ovarian
# [12] = tested on: NCI-H460 lung
# [13] = tested on: RXF 393 renal
# [14] = tested on: A498 renal
# [15] = tested on: SK-MEL-28 melanoma
# [16] = tested on: HOP-62 NSCLC
# [17] = tested on: ACHN renal
# [18] = tested on: K-562 leukemia
# [19] = tested on: UACC-257 melanoma
# [20] = tested on: DU-145 prostate
# [21] = tested on: UO-31 renal
# [22] = tested on: KM12 colon
# [23] = tested on: MDA-N
# [24] = tested on: SNB-75 CNS
# [25] = tested on: SK-MEL-2 melanoma
# [26] = tested on: UACC-62 melanoma
# [27] = tested on: HL-60(TB) leukemia
# [28] = tested on: HCT-116 colon
# [29] = tested on: 786-0 renal
# [30] = tested on: T-47D breast
# [31] = tested on: SNB-19 CNS
# [32] = tested on: A549 NSCLC
# [33] = tested on: COLO 205 colon
# [34] = tested on: NCI-H226 lung
# [35] = tested on: U251 CNS
# [36] = tested on: CAKI-1 renal
# [37] = tested on: RPMI-8226 leukemia
# [38] = tested on: MDA-MB-435
# [39] = tested on: SF-295 CNS
# [40] = tested on: HCC-2998 colon
# [41] = tested on: MOLT-4 leukemia
# [42] = tested on: IGROV1 ovarian
# [43] = tested on: NCI-H23 lung
# [44] = tested on: SR leukemia
# [45] = tested on: HCT-15 colon
# [46] = tested on: OVCAR-5 ovarian
# [47] = tested on: NCI/ADR-RES ovarian
# [48] = tested on: NCI-H522 lung
# [49] = tested on: HT29 colon
# [50] = tested on: CCRF-CEM leukemia
# [51] = tested on: EKVX NSCLC
# [52] = tested on: MALME-3M melanoma
# [53] = tested on: BT-549 breast
# [54] = tested on: SF-268 CNS
# [55] = tested on: OVCAR-8 ovarian
# [56] = tested on: HS 578T breast
# [57] = tested on: SF-539 CNS
# [58] = tested on: LOX IMVI melanoma
# [59] = tested on: HOP-92 NSCLC
smiles,measurement,setting,value
COC(=O)C1=C2SCc3ccc(cc3)CSC3=C(C(=O)OC)SC(=C(S2)S1)S3,TGI,[1],> 100 µM
same,TGI,[2],> 100 µM
same,TGI,[3],> 100 µM
same,TGI,[4],> 100 µM
same,TGI,[5],> 100 µM
same,TGI,[6],> 100 µM
same,TGI,[7],> 100 µM
same,TGI,[8],> 100 µM
same,TGI,[9],> 100 µM
same,TGI,[10],> 100 µM
same,TGI,[11],> 100 µM
same,TGI,[12],> 100 µM
same,TGI,[13],> 100 µM
same,TGI,[14],> 100 µM
same,TGI,[15],> 100 µM
same,TGI,[16],> 100 µM
same,TGI,[17],> 100 µM
same,TGI,[18],> 100 µM
same,TGI,[19],> 100 µM
same,TGI,[20],> 100 µM
same,TGI,[21],> 100 µM
same,TGI,[22],> 100 µM
same,TGI,[23],> 100 µM
same,TGI,[24],> 100 µM
same,TGI,[25],> 100 µM
same,TGI,[26],> 100 µM
same,TGI,[27],9.51 µM
same,TGI,[28],> 100 µM
same,TGI,[29],> 100 µM
same,TGI,[30],> 100 µM
same,TGI,[31],> 100 µM
same,TGI,[32],> 100 µM
same,TGI,[33],> 100 µM
same,TGI,[34],> 100 µM
same,TGI,[35],> 100 µM
same,TGI,[36],> 100 µM
same,TGI,[37],> 100 µM
same,TGI,[38],> 100 µM
same,TGI,[39],> 100 µM
same,TGI,[40],> 100 µM
same,TGI,[41],> 100 µM
Clc1ccc(C2c3ccccc3-c3nccn32)c(Cl)c1 (configuration not stated),GI50,[42],11.7 µM
same,TGI,[42],> 47.9 µM
same,GI50,[1],14.7 µM
same,TGI,[1],33.2 µM
same,GI50,[43],6.56 µM
same,TGI,[43],35.5 µM
same,GI50,[44],2.34 µM
same,TGI,[44],30 µM
same,GI50,[2],11.6 µM
same,TGI,[2],31.3 µM
same,GI50,[3],21.2 µM
same,TGI,[3],62.4 µM
same,GI50,[4],13.8 µM
same,TGI,[4],30.6 µM
same,GI50,[5],13.7 µM
same,TGI,[5],28.6 µM
same,GI50,[6],11.5 µM
same,TGI,[6],26 µM
same,GI50,[45],11.5 µM
same,TGI,[45],24.4 µM
same,GI50,[7],13.6 µM
same,TGI,[7],26.5 µM
same,GI50,[8],11 µM
same,TGI,[8],22.9 µM
same,GI50,[46],14.8 µM
same,TGI,[46],30.1 µM
same,GI50,[47],6.57 µM
same,TGI,[47],24 µM
same,GI50,[48],11.4 µM
same,TGI,[48],31.7 µM
same,GI50,[9],6.3 µM
same,TGI,[9],18.8 µM
same,GI50,[10],12.5 µM
same,TGI,[10],25.7 µM
same,GI50,[11],3.6 µM
same,TGI,[11],17.4 µM
same,GI50,[12],12.2 µM
same,TGI,[12],24.6 µM
same,GI50,[13],14.6 µM
same,TGI,[13],30.6 µM
same,GI50,[14],12.2 µM
same,TGI,[14],24.6 µM
same,GI50,[15],13.6 µM
same,TGI,[15],26.5 µM
same,GI50,[49],9.87 µM
same,TGI,[49],24.6 µM
same,GI50,[16],16.9 µM
same,TGI,[16],44.2 µM
same,GI50,[17],12.3 µM
same,TGI,[17],26.9 µM
same,GI50,[18],1.37 µM
same,TGI,[18],> 40.5 µM
same,GI50,[50],2.77 µM
same,TGI,[50],> 44.1 µM
same,GI50,[51],5.28 µM
same,TGI,[51],19.3 µM
same,GI50,[19],12.5 µM
same,TGI,[19],28.9 µM
same,GI50,[52],10.6 µM
same,TGI,[52],23.1 µM
same,GI50,[53],9.01 µM
same,TGI,[53],21.7 µM
same,GI50,[54],14 µM
same,TGI,[54],27.4 µM
same,GI50,[55],12.6 µM
same,TGI,[55],32.5 µM
same,GI50,[20],13.6 µM
same,TGI,[20],26.4 µM
same,GI50,[21],7.37 µM
same,TGI,[21],23.3 µM
same,GI50,[22],13.2 µM
same,TGI,[22],26.6 µM
same,GI50,[24],11.2 µM
same,TGI,[24],23.7 µM
same,GI50,[25],11.3 µM
same,TGI,[25],26 µM
same,GI50,[26],9.66 µM
same,TGI,[26],23 µM
same,GI50,[56],13.6 µM
same,TGI,[56],35.5 µM
same,GI50,[27],2.25 µM
same,TGI,[27],18.4 µM
same,GI50,[28],9.7 µM
same,TGI,[28],39.2 µM
same,GI50,[29],19.5 µM
same,TGI,[29],> 55.2 µM
same,GI50,[30],5.13 µM
same,TGI,[30],32.8 µM
same,GI50,[31],13.2 µM
same,TGI,[31],27.4 µM
same,GI50,[32],13.4 µM
same,TGI,[32],36.7 µM
same,GI50,[33],13.5 µM
same,TGI,[33],28 µM
same,GI50,[34],6.92 µM
same,TGI,[34],26 µM
same,GI50,[35],13.4 µM
same,TGI,[35],26.2 µM
same,GI50,[36],1.98 µM
same,TGI,[36],19 µM
same,GI50,[37],0.941 µM
same,TGI,[37],8.48 µM
same,GI50,[38],10.6 µM
same,TGI,[38],22.5 µM
same,GI50,[57],15 µM
same,TGI,[57],28.5 µM
same,GI50,[39],4.52 µM
same,TGI,[39],18.3 µM
same,GI50,[58],11.2 µM
same,TGI,[58],23.9 µM
same,GI50,[59],9.94 µM
same,TGI,[59],25.7 µM
same,GI50,[40],13.9 µM
same,TGI,[40],28.1 µM
same,GI50,[41],2.8 µM
same,TGI,[41],20.5 µM
